{"source": "paper PMC9739105", "about": "“Myotoxin-3 from the Pacific Rattlesnake Crotalus oreganus oreganus Venom Is a New Microtubule-Targeting Agent” (Molecules, 2022)", "key": {"EB1": {"test_system": "EB1", "details": "through phosphorylation of EB1 by GSK3; ref [34]; cited from earlier work"}, "MCF-7 cells": {"test_system": "MCF-7 cells", "details": "ref [30]; cited from earlier work", "description": "(§1) We also observed a different response of MCF-7 and U87 cells when measuring cell viability upon myotoxin-3 treatment. […] The tubulin isotype composition impacts the structural properties of microtubules and tunes their dynamics. Tubulin is also subjected to a large diversity of post-translational modifications that a ..."}, "HeLa cells": {"test_system": "HeLa cells", "details": "ref [30]; cited from earlier work", "description": "as §1"}, "[1]": {"test_system": "bacteria/fungi (anti-microbial activity)", "details": "without disulfide bonds; ref [18],[19]; cited from earlier work"}, "cell": {"test_system": "cell", "details": "ref [24]; cited from earlier work", "description": "Moreover, myotoxin-3 altered the dynamics of microtubules in MCF-7 cells (Table 1). […] Disturbing the dynamic instability of microtubules is a hallmark o ..."}, "[2]": {"details": "reference not given; cited from earlier work", "description": "In summary, peak 1 contains two 45-residue peptides, i.e., myotoxin-3 (45-residue His^5-myotoxin-3) and one isoform with Leucine at position 5 (45-residue Leu^5-myotoxin-3). Peak 2 contains two shorter isoforms (43 residues) of myotoxin-3 with either Histidine (43-residue His^5-myotoxin-3) or Leucine at position 5 (43-residue Leu^5-myotoxin-3) (Figure 3). This structure resemblance explains the similarity in their chromatographic behavior."}, "[3]": {"target": "lamb brain αβ-tubulin heterodimer (lamb (purified from lamb brain))", "assay": "ITC; PEAQ-ITC, 20 °C, 55 µM tubulin in the cell, 2.2 mM myotoxin 3 in the syringe, 20 mM sodium phosphate pH 6.5, 1 mM TCEP, 0.1 mM GTP (non-assembly buffer), one-set-of-sites model"}}, "note": "Where no end group is shown, it is not given here."}
{"molecule": "C[C@]12CC[C@H](O)C[C@H]1CC[C@@H]1[C@@H]2CC[C@]2(C)[C@@H](c3ccc(=O)oc3)CC[C@]12O", "note": "[bufalin]", "values": [{"measurement": "Effect on microtubule dynamics", "setting": "EB1", "result": "affecting microtubule dynamics through the phosphorylation of EB1 by GSK3"}]}
{"molecule": "C[C@@H]1O[C@@H](O[C@@H]2C=C3CC[C@@H]4[C@H](CC[C@]5(C)[C@@H](c6ccc(=O)oc6)CC[C@]45O)[C@@]3(C)CC2)[C@H](O)[C@H](O)[C@H]1O", "note": "[proscillaridin A]", "values": [{"measurement": "Effect on microtubule dynamics", "setting": "EB1", "result": "affecting microtubule dynamics through the phosphorylation of EB1 by GSK3"}]}
{"molecule": "CC[C@]1(O)C[C@H]2CN(CCc3c([nH]c4ccccc34)[C@@](C(=O)OC)(c3cc4c(cc3OC)N(C=O)[C@H]3[C@@](O)(C(=O)OC)[C@H](OC(C)=O)[C@]5(CC)C=CCN6CC[C@]43[C@@H]65)C2)C1", "note": "[vincristine]", "values": [{"measurement": "Response of cells to vincristine", "setting": "MCF-7 cells", "result": "reattached to the culture flask after a failed mitosis and remained viable"}, {"measurement": "Response of cells to vincristine", "setting": "HeLa cells", "result": "detached and died"}]}
{"molecule": "DTT-reduced crotamine: DTT-reduced crotamine (YKQCHKKGGHCFPKEKICLPPSSDFGKMDCRWRWKCCKKGSG; DTT-reduced; UniProt Q9PWF3 23-64, looked up)", "values": [{"measurement": "Antimicrobial activity", "setting": "[1]", "result": "kept their antimicrobial activity"}]}
{"molecule": "crotamine", "values": [{"measurement": "Cell penetration", "setting": "cell", "result": "cell-penetrating properties"}, {"measurement": "Anti-proliferative effect", "setting": "[2]", "result": "displaying an anti-proliferative effect"}]}
{"molecule": "non-structured crotamine: non-structured crotamine (without disulfide bonds) (YKQCHKKGGHCFPKEKICLPPSSDFGKMDCRWRWKCCKKGSG; without disulfide bonds; UniProt Q9PWF3 23-64, looked up)", "values": [{"measurement": "Antimicrobial activity", "setting": "[1]", "result": "keeps its anti-microbial activity"}]}
{"molecule": "non-structured recombinant crotamine: non-structured recombinant crotamine expressed in bacteria (YKQCHKKGGHCFPKEKICLPPSSDFGKMDCRWRWKCCKKGSG; also: recombinant, without disulfide bonds; UniProt Q9PWF3 23-64, looked up)", "values": [{"measurement": "Antimicrobial activity", "setting": "[1]", "result": "kept their antimicrobial activity"}]}
{"molecule": "YKRCHKKGGHCFPKTVICLPPSSDFGKMDCRWKWKCCKKGSVNNA (cysteines not oxidized (no disulfide bonds))", "note": "[synthetic non-oxidized myotoxin-3 (without disulfide bonds)]", "values": [{"measurement": "Kd", "setting": "[3]", "result": 5.3, "unit": "µM"}, {"measurement": "stoichiometry N", "setting": "[3]; scale: myotoxin-3 molecules per tubulin heterodimer", "result": 2}]}
